In brackets after ≈: the same amount, converted by molar mass. Values belong to the compound of their own block, whether it stands above or below them. Activity calls are given as the source filed them. The calls are words filed in the database; no cut-off is given here.
Tests used:
Homo sapiens [1] = organism: Homo sapiens; experiment: Selectivity index, ratio of IC50 for full length human PDE2A to IC50 for full length human PDE9A
Homo sapiens [2] = organism: Homo sapiens; experiment: Selectivity index, ratio of IC50 for full length human PDE3B to IC50 for full length human PDE9A
Homo sapiens [3] = organism: Homo sapiens; experiment: Selectivity index, ratio of IC50 for human platelet PDE5A to IC50 for full length human PDE9A
Homo sapiens [4] = organism: Homo sapiens; experiment: Selectivity index, ratio of IC50 for full length human PDE7B to IC50 for full length human PDE9A
Homo sapiens [5] = organism: Homo sapiens; experiment: Selectivity index, ratio of IC50 for full length human PDE8A to IC50 for full length human PDE9A
Homo sapiens [6] = organism: Homo sapiens; experiment: Selectivity index, ratio of IC50 for full length human PDE10A to IC50 for full length human PDE9A
Homo sapiens [7] = organism: Homo sapiens; experiment: Selectivity index, ratio of IC50 for full length human PDE11A to IC50 for full length human PDE9A
[8] = Blood clearance in po or iv dosed Wistar rat measured over 24 hrs by LC-MS/MS analysis; assay type: ADME, organism-based; conditions: in vivo
Homo sapiens [9] = organism: Homo sapiens; experiment: Selectivity index, ratio of IC50 for full length human PDE4B to IC50 for full length human PDE9A
[10] = Drug metabolism in rat hepatocytes assessed as glucuronidation of cyclic lactam at 10 uM incubated for 4 hrs by LC-MS/MS analysis; assay type: ADME, cell-based, Hepatocyte
[11] = Drug metabolism in cryopreserved human hepatocytes assessed as glucuronidation of cyclic lactam at 10 uM incubated for 4 hrs by LC-MS/MS analysis; assay type: ADME, cell-based, Hepatocyte
[12] = molecular target: High affinity cGMP-specific 3',5'-cyclic phosphodiesterase 9A (Homo sapiens, UniProt O76083); experiment: Inhibition of full length human PDE9A expressed in Sf9 insect cells using [3H]-cGMP as substrate incubated for 60 mins by microbeta scintillation counter analysis
High affinity cGMP-specific 3',5'-cyclic phosphodiesterase 9A, sequence (O76083 whole entry): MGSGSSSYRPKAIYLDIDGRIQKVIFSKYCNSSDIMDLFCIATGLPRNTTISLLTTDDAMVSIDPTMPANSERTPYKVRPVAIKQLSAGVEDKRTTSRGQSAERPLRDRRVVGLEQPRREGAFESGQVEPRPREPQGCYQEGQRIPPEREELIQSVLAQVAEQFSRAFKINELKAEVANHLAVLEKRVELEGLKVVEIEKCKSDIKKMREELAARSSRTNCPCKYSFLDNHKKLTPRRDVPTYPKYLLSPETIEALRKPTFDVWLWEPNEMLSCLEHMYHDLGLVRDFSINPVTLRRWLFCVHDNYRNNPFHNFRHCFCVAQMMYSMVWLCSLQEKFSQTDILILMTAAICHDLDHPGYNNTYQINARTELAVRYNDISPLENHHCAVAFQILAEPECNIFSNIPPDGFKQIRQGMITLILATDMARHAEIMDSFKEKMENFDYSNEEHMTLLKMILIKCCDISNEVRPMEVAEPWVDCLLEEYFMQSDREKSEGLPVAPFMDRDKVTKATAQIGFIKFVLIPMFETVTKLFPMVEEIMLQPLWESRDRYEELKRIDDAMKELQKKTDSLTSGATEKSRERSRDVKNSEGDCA

[13] = Selectivity index, ratio of IC50 for bovine brain PDE1 to IC50 for full length human PDE9A
[14] = Solubility of compound in PBS at pH 6.5 at 50 mg/ml incubated for 24 hrs by LC/MS/MS or HPLC analysis; assay type: physicochemical; conditions: buffer, pH 6.5, 24 h
[15] = Selectivity index, ratio of IC50 for bovine PDE6 to IC50 for full length human PDE11A
[16] = Drug metabolism in rat hepatocytes assessed as glucuronidation at 10 uM incubated for 30 mins by LC-MS/MS analysis; assay type: ADME, cell-based, Hepatocyte; conditions: 0.5 h
[17] = Blood clearance in Wistar rat at 1 mg/kg, po or 0.3 mg/kg, iv measured over 24 hrs by LC-MS/MS analysis; assay type: ADME, organism-based; conditions: in vivo
[18] = Volume of distribution at steady state in Wistar rat at 1 mg/kg, po or 0.3 mg/kg, iv measured over 24 hrs by LC-MS/MS analysis; assay type: ADME, organism-based; conditions: in vivo
[19] = MRT in Wistar rat at 0.3 mg/kg, iv measured over 24 hrs by LC-MS/MS analysis; assay type: ADME, organism-based; conditions: in vivo
[20] = Oral bioavailability in Wistar rat at 1 mg/kg measured over 24 hrs by LC-MS/MS analysis; assay type: ADME, organism-based; conditions: Wistar, in vivo
[21] = Blood clearance in dog at 1 mg/kg, po or 0.3 mg/kg, iv measured over 24 hrs by LC-MS/MS analysis; assay type: ADME, organism-based, Canis lupus familiaris; conditions: in vivo
[22] = Volume of distribution at steady state in dog at 1 mg/kg, po or 0.3 mg/kg, iv measured over 24 hrs by LC-MS/MS analysis; assay type: ADME, organism-based, Canis lupus familiaris; conditions: in vivo
[23] = MRT in dog at 0.3 mg/kg, iv measured over 24 hrs by LC-MS/MS analysis; assay type: ADME, organism-based, Canis lupus familiaris; conditions: in vivo
[24] = Oral bioavailability in dog at 1 mg/kg measured over 24 hrs by LC-MS/MS analysis; assay type: ADME, organism-based, Canis lupus familiaris; conditions: in vivo
Rattus norvegicus = experiment: In vivo inhibition of PDE9A in Sprague-Dawley rat assessed as increase in cGMP level in urine at 10 to 50 mg/kg, po measured after 85 mins by ELISA; assay type: functional, organism-based; conditions: dose 10-50 mg/kg
[25] = Toxicity in rat assessed as increase in blood pressure at 10 to 50 mg/kg, po administered twice daily via gavage and measured every 5 mins by telemetry system based analysis; assay type: organism-based; conditions: in vivo, dose 10-50 mg/kg
[26] = Toxicity in rat assessed as increase in heart rate at 10 to 50 mg/kg, po administered twice daily via gavage and measured every 5 mins by telemetry system based analysis; assay type: organism-based; conditions: in vivo, dose 10-50 mg/kg
Mus musculus [27] = experiment: In vivo inhibition of PDE9A in mouse myocardial hypertrophy model with transverse aortic constriction assessed as reduction of hypertrophy of the left atrium at 10 mg/kg administered twice daily for 5 weeks; assay type: functional, organism-based
Mus musculus [28] = experiment: In vivo inhibition of PDE9A in mouse myocardial hypertrophy model with transverse aortic constriction assessed as improvement of heart function at 10 mg/kg administered twice daily for 5 weeks; assay type: functional, organism-based
Mus musculus [29] = experiment: In vivo inhibition of PDE9A in mouse myocardial hypertrophy model with transverse aortic constriction assessed as reduction in minimal diastolic left ventricular pressure at 10 mg/kg administered twice daily for 5 weeks; assay type: functional, organism-based

- Ratio IC50 (Homo sapiens [1]): > 100
- Ratio IC50 (Homo sapiens [2]): > 100
- Ratio IC50 (Homo sapiens [3]): > 100
- Ratio IC50 (Homo sapiens [4]): > 100
- Ratio IC50 (Homo sapiens [5]): > 100
- Ratio IC50 (Homo sapiens [6]): > 100
- Ratio IC50 (Homo sapiens [7]): > 100
- CL [8]: 46.7 mL/min/kg
Structure (SMILES): CCCC1CNCc2c1[nH]c(=O)c(C#N)c2N1CCC(C)(C)CC1.Cl (configuration not stated)

- Ratio IC50 (Homo sapiens [1]): > 100
- Ratio IC50 (Homo sapiens [2]): > 100
- Ratio IC50 (Homo sapiens [3]): > 100
- Ratio IC50 (Homo sapiens [4]): > 100
- Ratio IC50 (Homo sapiens [5]): > 100
- Ratio IC50 (Homo sapiens [6]): > 100
- Ratio IC50 (Homo sapiens [7]): > 100
- Ratio IC50 (Homo sapiens [9]): > 100
- CL [8]: 60 mL/min/kg
- Drug metabolism [10]: Metabolite_Detected
- Drug metabolism [11]: Metabolite_Detected
Structure (SMILES): CCCC1CNCc2c1[nH]c(=O)c(C#N)c2-c1ccc(C)cc1.Cl (configuration not stated)

Structure (SMILES): CCCC1CNCc2c1[nH]c(=O)c(C#N)c2N1CCC2(CC1)CC2 (stereo in doubt; form 1)
- IC50 [12]: > 10000 nM

Structure (SMILES): CCCC1CNCc2c1[nH]c(=O)c(C#N)c2N1CCC2(CC1)CC2(F)F (racemic)
- Ratio IC50 [13]: 30

Structure (SMILES): Cc1ccc(-c2c3c([nH]c(=O)c2C#N)C(C)CCC3)cc1 (racemic)
- IC50 [12]: 310 nM
- Ratio IC50 [13]: 3
- solubility [14]: 9 µg/mL (≈ 32.3 µM)

- Ratio IC50 [15]: 17
Structure (SMILES): Cc1ccc(-c2c3c([nH]c(=O)c2C#N)CCCC3)cc1

- Drug metabolism [16]: Metabolite_Detected
Structure (SMILES): Cc1ccc(-c2c3c([nH]c(=O)c2C#N)C(C(C)C)CNC3)cc1.Cl (racemic)

Structure (SMILES): Cc1ccc(-c2c(C#N)c(=O)[nH]c3cccnc23)cc1
- IC50 [12]: 725 nM

- CL [17]: 50 mL/min/kg
- Vdss [18]: 2.2 L/kg
- MRT [19]: 0.8 h
- bioavailability [20]: 41%
- CL [21]: 8.3 mL/min/kg
- Vdss [22]: 1.5 L/kg
- MRT [23]: 3.1 h
- F [24]: 38%
Structure (SMILES): C[C@@H]1CN(Cc2ncccn2)C[C@H]1c1nc2c(cnn2C2CCOCC2)c(=O)[nH]1 [EDELINONTRINE]
- inhibition (Rattus norvegicus): Active
- Activity [25]: Non-Toxic
- Activity [26]: Non-Toxic
- inhibition (Mus musculus [27]): Active
- inhibition (Mus musculus [28]): Active
- inhibition (Mus musculus [29]): Active

Structure (SMILES): CCCC1CNCc2c1[nH]c(=O)c(C#N)c2N1CCC(C)CC1 (racemic)
- IC50 [12]: 200 nM
